Measurements taken from the CheMixHub viscosity set.

Assay: xn = mol fraction of the nth substance listed

O=S(=O)([O-])[O-].[Li+].[Li+] + [2H]O[2H]
viscosity [mPa·s], 101 kPa
Conditions	x1 = 0.005	x1 = 0.016	x1 = 0.032	x1 = 0.052
298.15 K	1.243	1.74	2.887	5.343
308.15 K	0.975	1.355	2.216	3.964
318.15 K	0.802	1.102	1.77	3.084

COCCOCCOC + c1ccc2c(c1)CCCC2
viscosity [mPa·s], 101.33 kPa
Conditions	x1 = 0.1028	x1 = 0.1977	x1 = 0.3019	x1 = 0.3993	x1 = 0.5009	x1 = 0.666	x1 = 0.7016	x1 = 0.7949	x1 = 0.8987
298.15 K	1.786	1.637	1.5	1.396	1.294	1.197	1.144	1.087	1.032
303.15 K	1.619	1.487	1.367	1.275	1.185	1.071	1.05	1	0.95
308.15 K	1.472	1.355	1.249	1.17	1.087	0.984	0.967	0.922	0.879
313.15 K	1.348	1.245	1.15	1.078	1.004	0.913	0.897	0.859	0.815

CC=CC(=O)O + c1ccccc1
viscosity [mPa·s], 101 kPa
Conditions	298.15 K	303.15 K	313.15 K	323.15 K
x1 = 0.0503	0.6275	0.5854	0.5132	0.4526
x1 = 0.102	0.6591	0.6129	0.5349	0.472
x1 = 0.1492	0.6902	0.6364	0.5555	0.4889

CCCCCCN + c1ccccc1
303.15 K, 101 kPa
Conditions	viscosity [mPa·s]
x2 = 0.105	0.6977
x2 = 0.2983	0.645
x2 = 0.4918	0.6006
x2 = 0.5946	0.5814
x2 = 0.6955	0.5639
x2 = 0.7954	0.5506
x2 = 0.8997	0.549

CNc1ccccc1 + c1ccccc1
298.15 K, 101 kPa
Conditions	viscosity [mPa·s]
x2 = 0.069	1.851
x2 = 0.11	1.728
x2 = 0.17	1.601
x2 = 0.264	1.433
x2 = 0.376	1.226
x2 = 0.387	1.202
x2 = 0.428	1.156
x2 = 0.513	1.055
x2 = 0.582	0.966
x2 = 0.697	0.842
x2 = 0.802	0.747
x2 = 0.852	0.71
x2 = 0.93	0.656

OC(C(F)(F)F)C(F)(F)F + c1ccccc1
viscosity [mPa·s], 101 kPa
Conditions	x1 = 0.04927	x1 = 0.1096	x1 = 0.1764	x1 = 0.2481	x1 = 0.3333	x1 = 0.4173	x1 = 0.5478	x1 = 0.6489	x1 = 0.8774
298.15 K	0.595	0.589	0.583	0.585	0.612	0.648	0.743	0.834	1.216
313.15 K	0.481	0.475	0.466	0.471	0.486	0.508	0.561	0.617	0.818
323.15 K	0.425	0.423	0.412	0.414	0.425	0.441	0.482	0.521	0.658

Oc1ccccc1 + c1ccccc1
Conditions	viscosity [mPa·s]
293.15 K, 101 kPa, x1 = 0.0507	0.683
293.15 K, 101 kPa, x1 = 0.0831	0.724
293.15 K, 101 kPa, x1 = 0.1719	0.865
293.15 K, 101 kPa, x1 = 0.2846	1.126
293.15 K, 101 kPa, x1 = 0.3763	1.401
293.15 K, 101 kPa, x1 = 0.4837	1.911
293.15 K, 101 kPa, x1 = 0.5924	2.642
293.15 K, 101 kPa, x1 = 0.7038	3.811
293.15 K, 101 kPa, x1 = 0.8043	5.35
298.15 K, 101.33 kPa, x1 = 0.083	0.6592
298.15 K, 101.33 kPa, x1 = 0.181	0.8516
298.15 K, 101.33 kPa, x1 = 0.2	0.841
298.15 K, 101.33 kPa, x1 = 0.239	0.9218
298.15 K, 101.33 kPa, x1 = 0.279	1.037
298.15 K, 101.33 kPa, x1 = 0.37	1.157
298.15 K, 101.33 kPa, x1 = 0.478	1.696
298.15 K, 101.33 kPa, x1 = 0.5	1.711
298.15 K, 101.33 kPa, x1 = 0.522	1.849
298.15 K, 101.33 kPa, x1 = 0.619	2.54
298.15 K, 101.33 kPa, x1 = 0.658	2.783
298.15 K, 101.33 kPa, x1 = 0.692	3.172
298.15 K, 101.33 kPa, x1 = 0.762	3.936
298.15 K, 101.33 kPa, x1 = 0.786	4.424
323.15 K, 101.33 kPa, x1 = 0.2	0.568
323.15 K, 101.33 kPa, x1 = 0.5	0.968

O=C1NC(=O)c2ccccc21 + c1ccncc1
298.15 K, 101 kPa
Conditions	viscosity [mPa·s]
x1 = 0.0278	0.9878
x1 = 0.06788	1.182

Oc1ccccc1 + c1ccncc1
viscosity [mPa·s], 101 kPa
Conditions	293.15 K	303.15 K	313.15 K
x1 = 0.0707	1.109	0.94	0.828
x1 = 0.1391	1.321	1.106	0.965
x1 = 0.213	1.597	1.339	1.152
x1 = 0.2888	2.01	1.634	1.389
x1 = 0.349	2.411	1.963	1.631
x1 = 0.4283	3.215	2.515	2.042
x1 = 0.5063	4.37	3.245	2.56
x1 = 0.5971	5.945	4.29	3.245
x1 = 0.6675	7.48	5.17	3.8
x1 = 0.7481	9.07	6.04	4.305
x1 = 0.8284	10.04	6.625	4.59
x1 = 0.9114	10.72	6.915	4.705
